The source of these data is patent publication US10030044B2, “Nucleotides for the treatment of liver cancer” (IDENIX PHARMACEUTICALS LLC, priority 2013, dated 2018).

The structures appear in SMILES notation.

The nature of data set [1]: Mouse liver pharmacokinetics (liver triphosphate levels) following a single oral dose. The class given is in vivo, mice. The settings on record: for Fold change Mouse Liver GemC TP compared to Gemcitabine / Fold change Mouse Liver GemC TP produced compared to GemU TP: single oral dose, calculated from Table 2 data. On the procedure: A single oral dose of test compound in PEG 200 (dose volume 5 mL/kg) was administered to C57BL/6 male mice. Five untreated animals were used for the collection of control plasma and liver. Terminal plasma and liver samples were collected from three animals per time point at 1, 2, 4, 12, and 24 hours post dose. Liver specimens were collected from all animals immediately after the incision. Freezing forceps stored in liquid nitrogen were used to freeze the liver before excision. […]
Liver samples were analyzed for corresponding active triphosphate species by LC-MS/MS. Triphosphate levels were assayed by homogenizing (on ice) a known weight of mouse liver with 4× volume of 0.95 M trichloroacetic acid (TCA). Internal standard solution was added to the homogenate followed by neutralization with 20% ammonium hydroxide solution and addition of 500 μL 1% formic acid. The tissue samples were extracted by weak anion exchange solid phase extraction (SPE). Post extraction, the eluates were evaporated under nitrogen, followed by reconstitution before injection onto the LC-MS/MS system. The samples were chromatographed on a Luna NH2 column using a gradient system of ammonium acetate (1 mM to 20 mM and pH 8.0 to pH 10.0) in water and acetonitrile (70:30). The analyte was detected and quantified by tandem mass spectrometry in positive ion mode on an API4000 equipped with a Turbo Ionspray® interface. The calibration range was 10 to 10000 pmol/mL in mouse liver homogenate (50 to 50000 pmol/g of mouse liver).

Data set [2] has as its system HepG2 cell line. Put plainly: In Vitro Inhibition of Hep G2 Hepatocytes (CellTiter-Glo, 72 hr). Type of data set: cell-based. Particulars: HepG2 cells, 72 hr exposure. On the procedure:
Cells were grown in RPMI-1640 supplemented with L-glutamine and 10% FBS: HepG2.
96 well plates of HepG2 cell line were seeded with the optimized number of cells per well in a total volume of 50 μL per well. The plates were left overnight. Some wells were seeded with 100 μL of media for media control. The following day, cells were exposed to test compounds. At same time as drug exposure, a CTG assay was conducted on 1st plate for the 0 hr count.
2× stocks of each compound in media were prepared for dosing, as follows:
50 μL of above 2× stocks were added to cells and medium already on plate to give final concentrations. 50 μL media were added to cell control wells, and 50 μL of mix added to vehicle control wells. 10 μM Dox was added to appropriate wells. Cells exposed to test compounds were incubated at 37° C. for 72 hr followed by a CTG assay.
At the end of the 72 hr exposure period, plates were removed for a CellTiter-Glo (CTG) assay from a 37° C., 5% CO2 incubator and placed on the bench at room temperature for 30 mins. 100 μL of CellTiter-Glo reagent was added and mixed for 2 mins, followed by a further 10 min incubation at room temperature. Luminescence was recorded using Synergy 4.0.
Background: Cellular ATP, detected with luciferase, serves as a proxy for viable cell number.

Broadly, the IC50 is the concentration that inhibits the measured activity by half. As to `C[C@H](NP(=O)(OC[C@H]1O[C@@H](n2ccc(N)nc2=O)C(F)(F)[C@@H]1O)Oc1ccccc1)C(=O)OCc1ccccc1` (single isomer, unassigned) [drawing 124], in data set [1] (listed as drawing 131), the “Fold change Mouse Liver GemC TP compared to Gemcitabine” value was “+ (+ ≤ 5)” and the “Fold change Mouse Liver GemC TP produced compared to GemU TP” value (“Fold change Mouse Liver GemC TP produced” for short) is reported as “+ (+ ≤ 5)”. The IC50 in data set [2] (Homo sapiens) lay in the range of 1 to 10 µM.
Turning to `C[C@H](NP(=O)(OC[C@H]1O[C@@H](n2ccc(N)nc2=O)C(F)(F)[C@@H]1O)Oc1ccccc1)C(=O)OCc1ccccc1` (single isomer, unassigned) [drawing 127], in data set [1] (listed as drawing 130), the “Fold change Mouse Liver GemC TP compared to Gemcitabine” value is listed as “++++ (25 < ++++ ≤ 50)” and the “Fold change Mouse Liver GemC TP produced” value is recorded as “+++ (10 < +++ ≤ 25)”.
With `CC(C)OC(=O)[C@@H](C)NP(=O)(OC[C@H]1O[C@@H](n2ccc(N)nc2=O)C(F)(F)[C@@H]1O)Oc1ccccc1` (single isomer, unassigned) [Compound 4, Diastereomer 2], in data set [1], the “Fold change Mouse Liver GemC TP compared to Gemcitabine” value is listed as “++ (5 < ++ ≤ 10)” and the “Fold change Mouse Liver GemC TP produced” value was “+++ (10 < +++ ≤ 25)”. In addition, the IC50 in data set [2] was over 10 µM.
As to `Nc1ccn([C@@H]2O[C@H](CO)[C@@H](O)C2(F)F)c(=O)n1` [Gemcitabine, gemcitabine], the “Fold change Mouse Liver GemC TP produced” value in data set [1] is recorded as “+ (+ ≤ 5)”.
With `CC(C)OC(=O)[C@@H](C)NP(=O)(OC[C@H]1O[C@@H](n2ccc(N)nc2=O)C(F)(F)[C@@H]1O)Oc1ccccc1` (single isomer, unassigned) [Compound 4, Diastereomer 1], in data set [1] (analyte GemU TP in mouse liver, single oral dose 182 mg/kg in PEG 200, 182 mg/kg), the Clast entry is “+++ (5,000 < +++ ≤ 15,000)”. Also, in data set [1], the “Fold change Mouse Liver GemC TP compared to Gemcitabine” value is “++++++ (100 < ++++++)” and the “Fold change Mouse Liver GemC TP produced” value is listed as “++++ (25 < ++++ ≤ 50)”. For the same compound, in data set [2] (Homo sapiens), the IC50 is over 10 µM.
As for `Nc1ccn([C@@H]2O[C@H](CO)[C@@H](O)C2(F)F)c(=O)n1` [drawing 125], the IC50 in data set [2] (Homo sapiens) was at most 0.01 µM.
